Test results from PubChem BioAssay AID328 (DTP/NCI, 2004).
Several values for one entry are separate records, joined by “and”; a condition that tells them apart may be missing. Identical values can stand only once. Inconclusive results and toxic doses are left out. The calls were made as follows: active = survival T/C of 150% or more; inactive = T/C below 125% in these data.

System: BDF1 mice, P388 leukemia ip, median survival T/C
Assay: NCI In Vivo Anticancer Drug Screen. Data for tumor model P388 Leukemia (intraperitoneal) in B6D2F1 (BDF1) mice
Conditions: endpoint: median survival time, higher = longer survival
Outline: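 In tumour-bearing mice, survival after compound treatment is set against the vehicle group and given as a quotient.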

[1] = dose: 12.5 mg/kg/injection, schedule: Q01DX009 (ip), vehicle: saline
[2] = dose: 50.0 mg/kg/injection, schedule: Q01DX009 (ip), vehicle: saline
[3] = dose: 100.0 mg/kg/injection, schedule: Q01DX009 (ip), vehicle: saline
[4] = dose: 100.0 mg/kg/injection, schedule: Q04DX003 (ip), vehicle: saline
[5] = dose: 200.0 mg/kg/injection, schedule: Q01DX009 (ip), vehicle: saline
[6] = dose: 400.0 mg/kg/injection, schedule: Q04DX003 (ip), vehicle: saline
[7] = dose: 50.0 mg/kg/injection, schedule: Q04DX003 (ip), vehicle: saline with Tween-80

Measured: T/C

CC(=O)O.CC(=O)O.CC(=O)O.CC(=O)O.[Rh].[Rh]
inactive: dose: 5.56 mg/kg/injection, schedule: Q01DX009 (ip), vehicle: saline 100 % of control and 122 % of control | dose: 8.33 mg/kg/injection, schedule: Q01DX009 (ip), vehicle: saline 100 % of control | [1] 118 % of control | dose: 18.7 mg/kg/injection, schedule: Q01DX009 (ip), vehicle: saline 90 % of control and 111 % of control

O=C(O)c1ccc(N2C(=O)c3ccccc3C2=O)cc1[N+](=O)[O-]
inactive: [2] 106 % of control | [3] 107 % of control | [4] 99 % of control | [5] 111 % of control | dose: 200.0 mg/kg/injection, schedule: Q04DX003 (ip), vehicle: saline 105 % of control | [6] 99 % of control

CN(C)c1ccc(N=Cc2cc[n+](C)cc2)cc1
inactive: [1] 104 % of control | dose: 16.5 mg/kg/injection, schedule: Q01DX009 (ip), vehicle: saline 116 % of control and 122 % of control | dose: 25.0 mg/kg/injection, schedule: Q01DX009 (ip), vehicle: saline 101 % of control | dose: 37.5 mg/kg/injection, schedule: Q01DX009 (ip), vehicle: saline 109 % of control and 118 % of control | [2] 118 % of control

CCN(CC)CCOCCO
inactive: [4] 110 % of control | [6] 100 % of control

CCCCCCOCCN1CCN(CCCN2c3ccccc3Sc3ccc(C(F)(F)F)cc32)CC1
inactive: dose: 12.5 mg/kg/injection, schedule: Q04DX003 (ip), vehicle: saline with Tween-80 121 % of control | dose: 25.0 mg/kg/injection, schedule: Q04DX003 (ip), vehicle: saline with Tween-80 97 % of control and 112 % of control | [7] 94 % of control

CCOC1=CCCCC1
inactive: [3] 113 % of control | [5] 115 % of control and 122 % of control | dose: 400.0 mg/kg/injection, schedule: Q01DX009 (ip), vehicle: saline 118 % of control

Cc1ccc2c(c1)=N/C(=N/c1[nH]c(O)c3ccccc13)N=2
inactive: dose: 6.25 mg/kg/injection, schedule: Q01DX009 (ip), vehicle: saline with Tween-80 108 % of control | dose: 12.5 mg/kg/injection, schedule: Q01DX009 (ip), vehicle: saline with Tween-80 99 % of control | dose: 25.0 mg/kg/injection, schedule: Q01DX009 (ip), vehicle: saline with Tween-80 108 % of control

C1CCCC2(CCC1)OCCO2
inactive: [7] 94 % of control | dose: 100.0 mg/kg/injection, schedule: Q01DX009 (ip), vehicle: saline with Tween-80 109 % of control | dose: 100.0 mg/kg/injection, schedule: Q04DX003 (ip), vehicle: saline with Tween-80 100 % of control | dose: 200.0 mg/kg/injection, schedule: Q01DX009 (ip), vehicle: saline with Tween-80 100 % of control | dose: 200.0 mg/kg/injection, schedule: Q04DX003 (ip), vehicle: saline with Tween-80 115 % of control and 119 % of control | dose: 400.0 mg/kg/injection, schedule: Q01DX009 (ip), vehicle: saline with Tween-80 109 % of control | dose: 400.0 mg/kg/injection, schedule: Q04DX003 (ip), vehicle: saline with Tween-80 112 % of control and 120 % of control

CC(=O)[O][Hg][c]1s[c]([Hg][O]C(C)=O)[c]([Hg][O]C(C)=O)[c]1[Hg][O]C(C)=O
inactive: dose: 1.0 mg/kg/injection, schedule: Q01DX009 (ip), vehicle: Klucel (hydroxypropylcellulose) (HPC) 101 % of control | dose: 2.0 mg/kg/injection, schedule: Q01DX009 (ip), vehicle: Klucel (hydroxypropylcellulose) (HPC) 100 % of control | dose: 2.6 mg/kg/injection, schedule: Q01DX009 (ip), vehicle: saline 118 % of control | dose: 3.8 mg/kg/injection, schedule: Q04DX003 (ip), vehicle: saline 95 % of control | dose: 4.0 mg/kg/injection, schedule: Q01DX009 (ip), vehicle: Klucel (hydroxypropylcellulose) (HPC) 102 % of control | dose: 4.0 mg/kg/injection, schedule: Q01DX009 (ip), vehicle: saline 118 % of control | dose: 6.0 mg/kg/injection, schedule: Q01DX009 (ip), vehicle: Klucel (hydroxypropylcellulose) (HPC) 101 % of control | dose: 6.0 mg/kg/injection, schedule: Q01DX009 (ip), vehicle: saline 118 % of control | dose: 7.5 mg/kg/injection, schedule: Q04DX003 (ip), vehicle: saline 100 % of control | dose: 9.0 mg/kg/injection, schedule: Q01DX009 (ip), vehicle: Klucel (hydroxypropylcellulose) (HPC) 103 % of control | dose: 9.0 mg/kg/injection, schedule: Q01DX009 (ip), vehicle: saline 118 % of control
